The test system of series [1] is human promyelocytic leukemia (HL-60). Put plainly: Growth inhibition of human cell line HL-60.
The subject of series [2] is human lymphocyte (CRL8155). Put plainly: Growth inhibition of human cell line CRL8155.
Series [3] deals with colorectal carcinoma (HC 2998). Kind of series: Growth inhibition of human cell line HC 2998.
In a further series the target is PfCDPK4 (Plasmodium falciparum (isolate 3D7), UniProt Q8IBS5). Kind of series: biochemical.
A further series has as its system glioma derived (SF539). Kind of series: Growth inhibition of human cell line SF539.
A further series has as its target PfCDPK1 (Plasmodium falciparum (isolate 3D7), UniProt P62344). Put plainly: biochemical.
The nature of series [4]: Solubility in buffers of various pH. Format: physicochemical. The note with it: buffer.
A further series has as its target TgCDPK1 (Toxoplasma gondii, UniProt Q9BJF5). Format: biochemical.
In a further series the target is CpCDPK1 (Cryptosporidium parvum (strain Iowa II), UniProt A3FQ16). Put plainly: biochemical. The series is classed as biochemical.
Series [5] is described as follows: Blood levels after oral gavage dosing of mice (LC-MS). The settings on record: mouse, in vivo, po.
A further series deals with HckKD (Homo sapiens (Human), UniProt P08631). Put plainly: Tyrosine kinase IC50, HckKD. The series is classed as biochemical. The note with it: Table 9.
The mark [6] stands for this setting: pH 6.5, aqueous buffer, read-out: Experimental Solubility pH 6.5.
[7] abbreviates: Table 8, read-out: IC50 (μM) CpCDPK1.

Each structure is given as a SMILES string. In brackets after ≈: the same amount, converted by molar mass. Read-outs that look alike come from different tables or passages of the source. Where only a bound is given, the exact number is not on record here.

Sequence of CpCDPK1 (A3FQ16 1-538): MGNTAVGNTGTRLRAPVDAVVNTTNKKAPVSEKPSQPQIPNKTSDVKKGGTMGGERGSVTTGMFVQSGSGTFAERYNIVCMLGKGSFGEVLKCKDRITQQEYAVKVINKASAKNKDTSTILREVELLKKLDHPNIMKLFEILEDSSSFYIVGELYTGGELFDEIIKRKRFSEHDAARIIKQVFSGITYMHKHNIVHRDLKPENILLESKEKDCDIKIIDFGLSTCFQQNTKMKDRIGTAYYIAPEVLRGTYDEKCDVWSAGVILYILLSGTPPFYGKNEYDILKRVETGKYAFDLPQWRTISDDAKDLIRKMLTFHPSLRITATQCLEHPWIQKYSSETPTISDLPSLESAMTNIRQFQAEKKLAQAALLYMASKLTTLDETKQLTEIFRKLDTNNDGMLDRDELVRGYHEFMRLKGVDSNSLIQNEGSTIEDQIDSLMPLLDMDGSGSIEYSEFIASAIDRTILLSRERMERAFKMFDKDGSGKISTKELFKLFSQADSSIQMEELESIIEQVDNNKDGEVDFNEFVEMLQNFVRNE
Sequence of TgCDPK1 (Q9BJF5 1-507): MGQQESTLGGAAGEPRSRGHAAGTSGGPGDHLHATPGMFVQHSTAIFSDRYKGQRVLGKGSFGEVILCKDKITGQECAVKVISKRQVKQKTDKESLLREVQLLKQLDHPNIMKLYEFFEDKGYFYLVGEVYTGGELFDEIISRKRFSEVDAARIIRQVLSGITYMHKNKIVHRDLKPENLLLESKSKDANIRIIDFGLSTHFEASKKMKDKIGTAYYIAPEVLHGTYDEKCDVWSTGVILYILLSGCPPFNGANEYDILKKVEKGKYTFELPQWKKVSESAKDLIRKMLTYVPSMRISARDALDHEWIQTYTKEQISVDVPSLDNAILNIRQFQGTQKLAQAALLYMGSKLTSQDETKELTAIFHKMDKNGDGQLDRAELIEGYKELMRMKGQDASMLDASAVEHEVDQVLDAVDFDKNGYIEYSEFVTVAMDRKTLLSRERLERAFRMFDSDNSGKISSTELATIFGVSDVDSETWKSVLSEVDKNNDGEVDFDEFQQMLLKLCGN
Sequence of HckKD (P08631 262-515): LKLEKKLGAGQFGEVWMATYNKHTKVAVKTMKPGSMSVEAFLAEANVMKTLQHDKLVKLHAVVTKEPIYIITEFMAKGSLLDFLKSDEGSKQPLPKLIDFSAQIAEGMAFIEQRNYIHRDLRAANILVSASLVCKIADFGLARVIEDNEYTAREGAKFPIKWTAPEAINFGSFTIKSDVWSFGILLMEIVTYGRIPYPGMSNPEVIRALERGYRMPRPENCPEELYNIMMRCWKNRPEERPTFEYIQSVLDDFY

`CC(C)(C)n1nc(-c2ccc3ccccc3c2)c2c(N)ncnc21` [Compound 2, 1-tert-butyl-3-(naphthalen-2-yl)-1H-pyrazolo[3,4-d]pyrimidin-4-amine]: the “Cell Toxicity HL60, % at 25 μM” value in series [1] is given as <30% at 25 μM;. Further, the “Cell Toxicity HL60, % at 30 μM” value in series [1] is <30% at 30 μM. Besides, the “Cell Toxicity CRL8155, % at 25 μM” value in series [2] is 37% at 25 μM;. In addition, the “Cell Toxicity CRL8155, % at 30 μM” value in series [2] was <30% at 30 μM. The “Cell Toxicity HCC2998, % at 25 μM” value in series [3] is recorded as <30% at 25 μM. The EC50 on PfCDPK4 was 480 nM; at PfCDPK1, 1250 nM. Also, the “Cell Toxicity SF539, % at 25 μM” value with glioma derived (SF539) is recorded as <30% at 25 μM. Besides, the solubility in [4] (aqueous buffer, pH 2.0, read-out: Experimental Solubility pH 2.0) is 43 µM (≈ 13.6 µg/mL); in [4] (setting [6]) it was 2.4 µM (≈ 0.762 µg/mL); in series [4] (pH 7.4, aqueous buffer, read-out: Experimental Solubility pH 7.4), 1.5 µM (≈ 0.476 µg/mL).
With `Nc1ncnc2c1c(Cc1cccc3ccccc13)nn2C1CCNCC1` [Compound 5g, 3-(naphthalen-1-ylmethyl)-1-(piperidin-4-yl)-1H-pyrazolo[3,4-d]pyrimidin-4-amine], the IC50 on TgCDPK1 (read-out: TgCDPK1 IC50) is 0.059 µM; on CpCDPK1 (read-out: IC50 (μM) CpCDPK1), 0.056 µM. Besides, the “Cell Toxicity HL60, % at 10 μM” value in [1] is recorded as <30% at 10 μM. Besides, in [2], the “Cell Toxicity CRL8155, % at 10 μM” value is <30% at 10 μM. Also, the “Cell Toxicity HCC2998, % at 10 μM” value in series [3] is reported as <30% at 10 μM. For the same compound, the “Cell Toxicity SF539, % at 10 μM” value in the series with glioma derived (SF539) is given as <30% at 10 μM.
In the case of `Nc1ncnc2c1c(Cc1cccc3ccccc13)nn2CCC1CCNCC1` [Compound 5i, 3-(naphthalen-1-ylmethyl)-1-(2-(piperidin-4-yl)ethyl)-1H-pyrazolo[3,4-d]pyrimidin-4-amine], the concentration for half-maximal inhibition (IC50) on TgCDPK1 (read-out: TgCDPK1 IC50) is 0.052 µM. Also, in series [1], the “Cell Toxicity HL60, % at 10 μM” value was <30% at 10 μM; and the “Cell Toxicity HL60, % at 30 μM” value is <30% at 30 μM. For the same compound, in [2], the “Cell Toxicity CRL8155, % at 10 μM” value is given as <30% at 10 μM; and the “Cell Toxicity CRL8155, % at 30 μM” value is reported as <30% at 30 μM. For the same compound, the “Cell Toxicity HCC2998, % at 10 μM” value in series [3] was <30% at 10 μM. Further, at PfCDPK4, the midpoint of the response, the EC50, lay at 603 nM. Further, the “Cell Toxicity SF539, % at 10 μM” value in the series with glioma derived (SF539) is given as <30% at 10 μM. For the same compound, the IC50 at CpCDPK1 (read-out: CpCDPK1 IC50) worked out at 0.034 µM.
Regarding `CCN1CCC(Cn2nc(Cc3cccc4ccccc34)c3c(N)ncnc32)CC1` [Compound 5n, 1-((1-ethylpiperidin-4-yl)methyl)-3-(naphthalen-1-ylmethyl)-1H-pyrazolo[3,4-d]pyrimidin-4-amine], in [1], the “Cell Toxicity HL60, % at 10 μM” value is listed as <30% at 10 μM. Further, in series [2], the “Cell Toxicity CRL8155, % at 10 μM” value is <30% at 10 μM. In addition, the “Cell Toxicity HCC2998, % at 10 μM” value in [3] is reported as <30% at 10 μM. Further, the “Cell Toxicity SF539, % at 10 μM” value in the series with glioma derived (SF539) is <30% at 10 μM.
As to `CS(=O)(=O)N1CCC(n2nc(Cc3cccc4ccccc34)c3c(N)ncnc32)CC1` [Compound 5p, 1-(1-(methylsulfonyl)piperidin-4-yl)-3-(naphthalen-1-ylmethyl)-1H-pyrazolo[3,4-d]pyrimidin-4-amine], the “Cell Toxicity HL60, % at 25 μM” value in series [1] was <30% at 25 μM. Moreover, in series [2], the “Cell Toxicity CRL8155, % at 25 μM” value is <30% at 25 μM. In addition, in series [3], the “Cell Toxicity HCC2998, % at 25 μM” value is on record as <30% at 25 μM. In addition, the “Cell Toxicity SF539, % at 25 μM” value in the series with glioma derived (SF539) is recorded as <30% at 25 μM.
Turning to `CC(C)n1nc(-c2ccc(Cl)cc2)c2c(N)ncnc21` [Compound 7a, 3-(4-chlorophenyl)-1-isopropyl-1H-pyrazolo[3,4-d]pyrimidin-4-amine], the IC50 turned out to be 0.018 µM at TgCDPK1 (read-out: IC50 (μM) TgCDPK1), 0.216 µM at CpCDPK1 (setting [7]) and 0.22 µM on CpCDPK1 (read-out: CpCDPK1 IC50). Besides, the solubility in series [4] (setting [6]) is 45 µM (≈ 12.9 µg/mL).
Regarding `CC(C)n1nc(-c2ccc(Cl)c(Cl)c2)c2c(N)ncnc21` [Compound 7c, 3-(3,4-dichlorophenyl)-1-isopropyl-1H-pyrazolo[3,4-d]pyrimidin-4-amine], the “Cell Toxicity HL60, % at 25 μM” value in [1] is recorded as 51% at 25 μM. For the same compound, the “Cell Toxicity CRL8155, % at 25 μM” value in series [2] was found to be 54% at 25 μM. Moreover, in series [3], the “Cell Toxicity HCC2998, % at 25 μM” value is <30% at 25 μM. Moreover, in the series on glioma derived (SF539), the “Cell Toxicity SF539, % at 25 μM” value was 31% at 25 μM.
As to `CC(C)n1nc(-c2ccc3ccccc3c2)c2c(N)ncnc21` [Compound 7p, 1-isopropyl-3-(naphthalen-2-yl)-1H-pyrazolo[3,4-d]pyrimidin-4-amine], the “Cell Toxicity HL60, % at 10 μM” value in series [1] worked out at 35% at 10 μM. Besides, the “Cell Toxicity HL60, % at 25 μM” value in [1] was 50% at 25 μM;. Besides, the GI50 was > 10 µM in series [1] (read-out: GI50 (μM) HL60, human cell line HL60); > 10 µM in series [2] (read-out: GI50 (μM) CRL8155, human cell line CRL8155); ~10 µM in [3] (read-out: GI50 (μM) HCC2998, human cell line HCC2998); > 10 µM in the series with glioma derived (SF539) (read-out: GI50 (μM) SF539, human cell line SF539). Besides, the “Cell Toxicity CRL8155, % at 25 μM” value in [2] is recorded as 46% at 25 μM. Besides, in series [3], the “Cell Toxicity HCC2998, % at 25 μM” value is <30% at 25 μM. Moreover, the EC50 on PfCDPK4 came to 142 nM; on PfCDPK1, 380 nM. In addition, in the series on glioma derived (SF539), the “Cell Toxicity SF539, % at 10 μM” value came out at 54% at 10 μM. Further, the “Cell Toxicity SF539, % at 25 μM” value with glioma derived (SF539) is reported as 84% at 25 μM;.
On to `CC(C)n1nc(-c2cnc3ccccc3c2)c2c(N)ncnc21` [Compound 7t, 1-isopropyl-3-(quinolin-3-yl)-1H-pyrazolo[3,4-d]pyrimidin-4-amine], for which, in series [1], the “Cell Toxicity HL60, % at 10 μM” value is on record as <30% at 10 μM. In addition, the “Cell Toxicity CRL8155, % at 10 μM” value in series [2] is <30% at 10 μM. For the same compound, the “Cell Toxicity HCC2998, % at 10 μM” value in series [3] was <30% at 10 μM. The EC50 on PfCDPK4 worked out at 169 nM; at PfCDPK1, 1360 nM. The “Cell Toxicity SF539, % at 10 μM” value in the series with glioma derived (SF539) is <30% at 10 μM.
Turning to `CCOc1ccc2cc(-c3nc(C(C)C)n4ccnc(N)c34)ccc2c1` [Compound 10, 1-(6-ethoxynaphthalen-2-yl)-3-isopropylimidazo[1,5-a]pyrazin-8-amine], the IC50 at TgCDPK1 (read-out: IC50 (μM) TgCDPK1) came to 0.078 µM. The compound further gave an EC50 on PfCDPK4 of 328 nM. Further, a half-maximal effect at PfCDPK1 (EC50) was put at 380 nM. In addition, the solubility in series [4] (setting [6]) came out at 29 µM (≈ 10 µg/mL). In series [5], the AUC is 112 µM·h, the highest level (Cmax) was 26000 nM and the Tmax was 2.5 h. Moreover, at CpCDPK1 (setting [7]), the IC50 amounted to 0.0336 µM.
For `CC(C)Oc1ccc2cc(-c3nn(CC4CCNCC4)c4ncnc(N)c34)ccc2c1` [Compound 32, 3-(6-isopropoxynaphthalen-2-yl)-1-(piperidin-4-ylmethyl)-1H-pyrazolo[3,4-d]pyrimidin-4-amine], the 50% inhibitory concentration (IC50) against HckKD was > 10 µM. Also, the results for the EC50 on PfCDPK4 and on PfCDPK1 were 55.4 nM and 365 nM, respectively.
Take `Cn1ncc2cc(-c3nn(CC4CCNCC4)c4ncnc(N)c34)ccc21` [Compound 121]: the “Cell Toxicity HL60, % at 10 μM” value in [1] is given as <30% at 10 μM. In [2], the “Cell Toxicity CRL8155, % at 10 μM” value is <30% at 10 μM. The compound further returned a concentration giving a half-maximal response (EC50) on PfCDPK4 of 146 nM. Besides, the midpoint of the response on PfCDPK1, the EC50, lay at 702 nM. Further, the solubility in series [4] (setting [6]) came to 43 µM (≈ 15.6 µg/mL). For the same compound, in series [5], the AUC was 0.445 µM·h, the peak level (Cmax) was 190 nM and the Tmax is 1.5 h.
The compound `CC(C)COc1ccc2cc(-c3nn(CC4CCN(C)CC4)c4ncnc(N)c34)ccc2c1` [Compound 124] registered a concentration for a half-maximal effect (EC50) on PfCDPK4 of 101 nM. This compound also had an EC50 at PfCDPK1 of 119 nM. Moreover, the solubility in series [4] (setting [6]) stood at 41 µM (≈ 18.2 µg/mL). Further, in [5], the AUC was 6.65 µM·h, the Cmax is 1840 nM and the time to peak (Tmax) was 3 h.
With `Nc1ncnc2c1c(-c1ccc3ccccc3c1)nn2CC1CCNCC1` [Compound 147, 3-(naphthalen-2-yl)-1-(piperidin-4-ylmethyl)-1H-pyrazolo[3,4-d]pyrimidin-4-amine], in series [1], the “Cell Toxicity HL60, % at 10 μM” value was 33% at 10 μM and the “Cell Toxicity HL60, % at 30 μM” value is 60% at 30 μM;. The “Cell Toxicity CRL8155, % at 30 μM” value in [2] is listed as <30% at 30 μM. Further, at PfCDPK4, a half-maximal effect (EC50) was put at 17.2 nM. Also, a half-maximal response at PfCDPK1 (EC50) required 66.8 nM. The solubility in [4] (setting [6]) was 79 µM (≈ 28.3 µg/mL).

The record behind these values is US9765037B2, “Compositions and methods for treating toxoplasmosis, cryptosporidiosis, and other apicomplexan protozoan related diseases” (University of Washington Through its Center for …, priority 2010, dated 2017).
